This note sets out measurements from patent publication US9458135B2, “Dihydroquinoline-2-one derivatives” (Hoffmann-La Roche Inc., priority 2014, dated 2016).

Each structure is given as a SMILES string.

For experiment [1], the target named is human CYP11B2 (Homo sapiens (Human), UniProt P19099). As to the kind of experiment: G-402 cellular enzyme assay, human CYP11B2 (aldosterone release, HTRF). The experiment is classed as cell-based. The note with it: G-402 cells expressing human CYP11B2; 1 μM Deoxycorticosterone. The source says: (§1) Herein we identified the use of the G-402 cell line as a host cell to ectopically express (transiently or stably) enzymes of the CYP11 family. Specifically we developed stable G-402 cells expressing ectopically human CYP11B1, human CYP11B2, human CYP11A1, cynmolgus CYP11B1 or cynomolgus CYP11B2 enzyme activity. Importantly the identified cell line G-402 expresses co-factors (adrenodoxin and adrenodoxin reductase) important for the activity of the CYP11 family and no relevant enzyme activity of the CYP11 family (in comparison to H295R cells) was detected in these cells. Therefore the G-402 cell line is uniquely suited as a host cell for the ectopic expression of enzymes from the CYP11 family.
(§2) The expression plasmids contains the ORF for either huma/cyno CYP11B1 or CYP11B2 under the control of a suitable promoter (CMV-promoter) and a suitable resistance marker (neomycin). Using standard techniques the expression plasmid is transfected into G-402 cells and these cells are then selected for expressing the given resistance markers. Individual cell-clones are then selected and assessed for displaying the desired enzymatic activity using 11-Deoxycorticosterone (Cyp11B2) or 11-Deoxycortisol (Cyp11B1) as a substrate.
(§3) G-402 cells expressing CYP11 constructs were established as described above and maintained in McCoy's 5a Medium Modified, ATCC Catalog No. 30-2007 containing 10% FCS and 400 μg/ml G418 (Geneticin) at 37° C. under an atmosphere of 5% CO2/95% air. Cellular enzyme assays were performed in DMEM/F12 medium containing 2.5% charcoal treated FCS and appropriate concentration of substrate (0.3-10 uM 11-Deoxycorticosterone, 11-Deoxycortisol or Corticosterone). For assaying enzymatic activity, cells were plated onto 96 well plates and incubated for 16 h. An aliquot of the supernatant is then transferred and analyzed for the concentration of the expected product (Aldosterone for CYP11B2; Cortisol for CYP11B1). The concentrations of these steroids can be determined using HTRF assays from CisBio analyzing either Aldosterone or Cortisol.
(§4) Inhibition of the release of produced steroids can be used as a measure of the respective enzyme inhibition by test compounds added during the cellular enzyme assay. The dose dependent inhibition of enzymatic activity by a compound is calculated by means of plotting added inhibitor concentrations (x-axes) vs. measured steroid/product level (y-axes). The inhibition is then calculated by fitting the following 4-parameter sigmoidal function (Morgan-Mercer-Flodin (MMF) model) to the raw data points using the least squares method:
(§5) [formula] wherein, A is the maximum y value, B is the EC50 factor determined using XLFit, C is the minimum y value and D is the slope value.
(§6) EC50 values for compounds claimed herein were tested with the G402-based assay system described. Cyp11B2 enzyme activity was tested in presence of 1 μM Deoxycorticosterone and variable amounts of inhibitors; Cyp11B1 enzyme activity was tested in presence of 1 μM Deoxycortisol and variable amounts of inhibitors.

Experiment [2] deals with human CYP11B1 (Homo sapiens (Human), UniProt P15538). As to the kind of experiment: G-402 cellular enzyme assay, human CYP11B1 (cortisol release, HTRF). It counts as cell-based. Conditions: G-402 cells expressing human CYP11B1; 1 μM Deoxycortisol.
From the text: as §1, §2, §3, §4, §5, §6
(In general: Time-resolved FRET reads energy transfer from a long-lived donor to a nearby acceptor.)

Chain of human CYP11B1 (P15538 25-503): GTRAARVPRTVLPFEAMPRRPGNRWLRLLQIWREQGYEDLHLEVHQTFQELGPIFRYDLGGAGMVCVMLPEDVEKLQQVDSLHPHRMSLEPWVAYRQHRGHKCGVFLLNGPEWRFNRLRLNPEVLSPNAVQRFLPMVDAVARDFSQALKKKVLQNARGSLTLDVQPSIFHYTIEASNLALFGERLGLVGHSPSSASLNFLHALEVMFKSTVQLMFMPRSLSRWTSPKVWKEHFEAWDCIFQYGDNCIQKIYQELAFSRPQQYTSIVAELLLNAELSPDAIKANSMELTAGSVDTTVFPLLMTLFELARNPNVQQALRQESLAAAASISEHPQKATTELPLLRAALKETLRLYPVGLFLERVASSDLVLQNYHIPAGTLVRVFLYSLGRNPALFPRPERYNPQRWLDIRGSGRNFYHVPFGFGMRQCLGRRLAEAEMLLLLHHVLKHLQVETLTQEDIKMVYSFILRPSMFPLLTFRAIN
Chain of human CYP11B2 (P19099 25-503): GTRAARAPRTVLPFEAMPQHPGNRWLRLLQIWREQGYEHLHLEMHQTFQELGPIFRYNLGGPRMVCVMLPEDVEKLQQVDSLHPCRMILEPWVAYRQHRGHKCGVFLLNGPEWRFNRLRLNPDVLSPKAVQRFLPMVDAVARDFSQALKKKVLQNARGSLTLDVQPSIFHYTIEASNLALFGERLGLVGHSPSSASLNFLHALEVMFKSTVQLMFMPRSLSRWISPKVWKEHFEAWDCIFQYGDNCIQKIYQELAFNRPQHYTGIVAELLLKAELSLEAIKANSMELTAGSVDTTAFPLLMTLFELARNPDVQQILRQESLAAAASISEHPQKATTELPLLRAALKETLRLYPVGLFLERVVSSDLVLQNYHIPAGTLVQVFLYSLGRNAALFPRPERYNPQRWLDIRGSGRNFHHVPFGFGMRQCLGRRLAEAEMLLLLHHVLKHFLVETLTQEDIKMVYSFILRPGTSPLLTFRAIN

In the case of `Cc1nccc(OCc2cncc(-c3ccc4c(c3)CCC(=O)N4C)c2)n1` [Example 9, 1-Methyl-6-[5-(2-methyl-pyrimidin-4-yloxymethyl)-pyridin-3-yl]-3,4-dihydro-1H-quinolin-2-one], the concentration giving a half-maximal response (EC50) in experiment [1] came out at 0.1 nM; in experiment [2], 4.2 nM.

Regarding `Cc1cccc(OCc2cncc(-c3cc4c(cc3F)N(C)C(=O)CC4)c2C)n1` [Example 24, 7-Fluoro-1-methyl-6-[4-methyl-5-(6-methyl-pyridin-2-yloxymethyl)-pyridin-3-yl]-3,4-dihydro-1H-quinolin-2-one], the EC50 is 0.7 nM in experiment [1] and 105 nM in experiment [2].

Take `CN1C(=O)CCc2cc(-c3cncc(COc4cccc(Cl)n4)c3)c(F)cc21` [Example 21, 6-[5-(6-Chloro-pyridin-2-yloxymethyl)-pyridin-3-yl]-7-fluoro-1-methyl-3,4-dihydro-1H-quinolin-2-one]: the EC50 in experiment [1] came to 0.3 nM; in experiment [2], 16.3 nM.

On to `CN1C(=O)CCc2cc(-c3cncc(COc4cccc(F)n4)c3)ccc21` [Example 18, 6-[5-(6-Fluoro-pyridin-2-yloxymethyl)-pyridin-3-yl]-1-methyl-3,4-dihydro-1H-quinolin-2-one], for which the figures for the EC50 in experiment [1] and in experiment [2] were 0.3 nM and 7.5 nM, respectively.

Regarding `CN1C(=O)CCc2cc(-c3cncc(COc4ccc(Cl)cn4)c3)ccc21` [Example 6, 6-[5-(5-Chloro-pyridin-2-yloxymethyl)-pyridin-3-yl]-1-methyl-3,4-dihydro-1H-quinolin-2-one], the EC50 in experiment [1] came to 0.1 nM; in experiment [2] it was 1.9 nM.

Regarding `Cc1cccc(OCc2cncc(-c3cc4c(cc3F)N(C)C(=O)CC4)c2)n1` [Example 22, 7-Fluoro-1-methyl-6-[5-(6-methyl-pyridin-2-yloxymethyl)-pyridin-3-yl]-3,4-dihydro-1H-quinolin-2-one], the values for the EC50 in experiment [1] and in experiment [2] were 2 nM and 216 nM, respectively.

In the case of `Cc1c(COc2cccc(F)n2)cncc1-c1cc2c(cc1F)N(C)C(=O)CC2` [Example 27, 7-Fluoro-6-[5-(6-fluoro-pyridin-2-yloxymethyl)-4-methyl-pyridin-3-yl]-1-methyl-3,4-dihydro-1H-quinolin-2-one], the EC50 was 0.2 nM in experiment [1] and 20.8 nM in experiment [2].

Regarding `CN1C(=O)CCc2cc(-c3cncc(CSc4ncccc4Cl)c3)ccc21` [Example 16, 6-[5-(3-Chloro-pyridin-2-ylsulfanylmethyl)-pyridin-3-yl]-1-methyl-3,4-dihydro-1H-quinolin-2-one], the EC50 in experiment [1] was found to be 1.4 nM; in experiment [2], 45.7 nM.

Take `CN1C(=O)CCc2cc(-c3cncc(COc4ncccc4C(F)(F)F)c3)ccc21` [Example 8, 1-Methyl-6-[5-(3-trifluoromethyl-pyridin-2-yloxymethyl)-pyridin-3-yl]-3,4-dihydro-1H-quinolin-2-one]: the concentration giving a half-maximal response (EC50) in experiment [1] came to 2.3 nM; in experiment [2] it was 72.8 nM.

`Cc1cccc(OCc2cncc(-c3ccc4c(c3)CCC(=O)N4C)c2)n1` [Example 3, 1-Methyl-6-[5-(6-methyl-pyridin-2-yloxymethyl)-pyridin-3-yl]-3,4-dihydro-1H-quinolin-2-one]: the EC50 in experiment [1] came out at 0.1 nM; in experiment [2], 4.8 nM.

`CN1C(=O)CCc2cc(-c3cncc(COc4ccc(F)cn4)c3)ccc21` [Example 2, 6-[5-(5-Fluoro-pyridin-2-yloxymethyl)-pyridin-3-yl]-1-methyl-3,4-dihydro-1H-quinolin-2-one]: the figures for the EC50 in experiment [1] and in experiment [2] were 0.2 nM and 6.3 nM, respectively.

Take `CN1C(=O)CCc2cc(-c3cncc(COc4ccccn4)c3)ccc21` [Example 7, 1-Methyl-6-[5-(pyridin-2-yloxymethyl)-pyridin-3-yl]-3,4-dihydro-1H-quinolin-2-one]: the EC50 in experiment [1] is 0.2 nM; in experiment [2] it was 8.7 nM.

Turning to `Cc1ccnc(OCc2cncc(-c3cc4c(cc3F)N(C)C(=O)CC4)c2)c1` [Example 23, 7-Fluoro-1-methyl-6-[5-(4-methyl-pyridin-2-yloxymethyl)-pyridin-3-yl]-3,4-dihydro-1H-quinolin-2-one], the EC50 in experiment [1] worked out at 0.1 nM; in experiment [2], 4.1 nM.

As to `Cc1c(COc2ncccc2F)cncc1-c1cc2c(cc1F)N(C)C(=O)CC2` [Example 26, 7-Fluoro-6-[5-(3-fluoro-pyridin-2-yloxymethyl)-4-methyl-pyridin-3-yl]-1-methyl-3,4-dihydro-1H-quinolin-2-one], the values for the EC50 in experiment [1] and in experiment [2] were 5 nM and 866 nM, respectively.

In the case of `CN1C(=O)CCc2cc(-c3cncc(CC(=O)Nc4cccc(Cl)n4)c3)ccc21` [Example 30, N-(6-Chloro-pyridin-2-yl)-2-[5-(1-methyl-2-oxo-1,2,3,4-tetrahydro-quinolin-6-yl)-pyridin-3-yl]-acetamide], the results for the EC50 in experiment [1] and in experiment [2] were 6.8 nM and 40.5 nM, respectively.

Turning to `Cc1c(COc2cccc(Cl)n2)cncc1-c1cc2c(cc1F)N(C)C(=O)CC2` [Example 25, 6-[5-(6-Chloro-pyridin-2-yloxymethyl)-4-methyl-pyridin-3-yl]-7-fluoro-1-methyl-3,4-dihydro-1H-quinolin-2-one], the concentration for a half-maximal effect (EC50) was 1.3 nM in experiment [1] and 116 nM in experiment [2].

With `CN1C(=O)CCc2cc(-c3cncc(CSc4ncccc4C(F)(F)F)c3)ccc21` [Example 15, 1-Methyl-6-[5-(3-trifluoromethyl-pyridin-2-ylsulfanylmethyl)-pyridin-3-yl]-3,4-dihydro-1H-quinolin-2-one], the EC50 in experiment [1] is 0.5 nM; in experiment [2], 14.3 nM.

Regarding `CN1C(=O)CCc2cc(-c3cncc(COc4ncccn4)c3)ccc21` [Example 12, 1-Methyl-6-[5-(pyrimidin-2-yloxymethyl)-pyridin-3-yl]-3,4-dihydro-1H-quinolin-2-one], the concentration giving a half-maximal response (EC50) in experiment [1] amounted to 3.6 nM; in experiment [2], 101 nM.

With `CN1C(=O)CCc2cc(-c3cncc(COc4cccc(Cl)n4)c3)ccc21` [Example 1, 6-[5-(6-Chloro-pyridin-2-yloxymethyl)-pyridin-3-yl]-1-methyl-3,4-dihydro-1H-quinolin-2-one], the EC50 in experiment [1] came to 0.2 nM; in experiment [2], 9.1 nM.

Take `Cc1cc(OCc2cncc(-c3ccc4c(c3)CCC(=O)N4C)c2)nc(C(F)(F)F)c1` [Example 4, 1-Methyl-6-[5-(4-methyl-6-trifluoromethyl-pyridin-2-yloxymethyl)-pyridin-3-yl]-3,4-dihydro-1H-quinolin-2-one]: the results for the EC50 in experiment [1] and in experiment [2] were 0.4 nM and 3.6 nM, respectively.

For `CN1C(=O)CCc2cc(-c3cncc(COc4cnc(Cl)nc4)c3)ccc21` [Example 11, 6-[5-(2-Chloro-pyrimidin-5-yloxymethyl)-pyridin-3-yl]-1-methyl-3,4-dihydro-1H-quinolin-2-one], the EC50 in experiment [1] came to 0.1 nM; in experiment [2], 0.8 nM.

`CN1C(=O)CCc2cc(-c3cncc(COc4ccnc(C(F)(F)F)n4)c3)ccc21` [Example 10, 1-Methyl-6-[5-(2-trifluoromethyl-pyrimidin-4-yloxymethyl)-pyridin-3-yl]-3,4-dihydro-1H-quinolin-2-one]: the 50% effective concentration (EC50) in experiment [1] amounted to 0.3 nM; in experiment [2], 12.3 nM.

Take `CN1C(=O)CCc2cc(-c3cncc(CSc4nc5ccccc5o4)c3)ccc21` [Example 13, 6-[5-(Benzooxazol-2-ylsulfanylmethyl)-pyridin-3-yl]-1-methyl-3,4-dihydro-1H-quinolin-2-one]: the EC50 in experiment [1] came out at 0.3 nM; in experiment [2], 0.9 nM.

For `Cc1cccc(NC(=O)Cc2cncc(-c3ccc4c(c3)CCC(=O)N4C)c2)n1` [Example 28, 2-[5-(1-Methyl-2-oxo-1,2,3,4-tetrahydro-quinolin-6-yl)-pyridin-3-yl]-N-(6-methyl-pyridin-2-yl)-acetamide], the EC50 in experiment [1] was determined as 2.2 nM; in experiment [2], 14.5 nM.

For `CN1C(=O)CCc2cc(-c3cncc(COc4ccc(Cl)cn4)c3)c(F)cc21` [Example 20, 6-[5-(5-Chloro-pyridin-2-yloxymethyl)-pyridin-3-yl]-7-fluoro-1-methyl-3,4-dihydro-1H-quinolin-2-one], the EC50 was found to be 0.1 nM in experiment [1] and 1.6 nM in experiment [2].

Turning to `CN1C(=O)CCc2cc(-c3cncc(CC(=O)Nc4cccc(Cl)c4)c3)ccc21` [Example 29, N-(3-Chloro-phenyl)-2-[5-(1-methyl-2-oxo-1,2,3,4-tetrahydro-quinolin-6-yl)-pyridin-3-yl]-acetamide], the EC50 in experiment [1] worked out at 12.7 nM; in experiment [2], 307 nM.

What is called EC50 is the midpoint of the concentration-response curve. A high value points to a less potent agent.
